Test results published in patent US7781565B2 (priority 2006, dated 2010).
“Also recorded” adds a separate entry of the source.

tested on: NCI-60 cell lines; type: cell-based, human

Row | Substance | Cell Line (NCI-60 cell line the peptide is associated with) | Cell Line the peptide is associated with (peptide recovered from phage library selection on this NCI-60 cell line) | Cell Line with which the peptide (and its tripeptide motif) is associated | Cell Line (NCI-60 cell line the peptide and its motif are associated with)
1 | LRIARGV | COLO-205-Colon |  |  | 
2 | LRLSGHD |  | NCI/ADR-RES Breast |  | 
3 | LRLSSIP |  |  | CCRF-CEM Leukemia | 
4 | LRPGLRS |  | CAIK-1 Renal |  | 
5 | LRRSSFS |  |  | K-562-Leukemia | 
6 | LRSDPRS | HT-29 Colon |  |  | 
7 | LRSGAGS |  |  | Molt-4-Leukemia | 
8 | LRSGRGS |  | MDA-MB-435-Breast | RPMI-8226-Leukemia | 
9 | LRSGSLG | SF-268 CNS |  |  | 
10 | LRSMAVM |  | ACHN Renal |  | 
11 | LRSRLGF |  |  | SR Leukemia | 
12 | LRSSGAT |  |  | H322-Lung | 
13 | LRSSLVS |  | RXF393 Renal |  | 
14 | LRSSMML | MALME-3M Melanoma |  |  | 
15 | LRSVGSW | HCT-15 Colon |  |  | 
16 | LRSWLLF | HT-29 Colon |  |  | 
17 | LRSYAWS | SNB-19 CNS; also recorded: SF-539 CNS |  |  | 
18 | LRVDQLY |  |  |  | UACC62 Melanoma
19 | LRVGHAG |  | SN12C Renal |  | 
20 | LRVGIGY |  |  | H23-Lung | 
21 | LRVGXPG |  | NCI/ADR-RES Breast |  | 
22 | LRVPGGP | KM-12C Colon |  |  | 
23 | LRVRYAV |  |  | H322-Lung | 
24 | LRVSNPR |  |  |  | UACC62 Melanoma

Row | Substance | Cell Line (NCI-60 cell line the peptide is associated with) | Cell Line the peptide is associated with (peptide recovered from phage library selection on this NCI-60 cell line) | Cell Line with which the peptide (and its tripeptide motif) is associated | Cell Line (NCI-60 cell line the peptide and its motif are associated with)
25 | LRVSRGL |  | TK-10 Renal |  | 
26 | LRVYGEG | SNB-75 CNS |  |  | 
27 | LRYDLRS |  |  | RPMI-8226-Leukemia | 
28 | LRYNLRS |  |  | RPMI-8226-Leukemia | 
29 | LRYWAAV |  |  |  | SK-MEL-2 Melanoma
30 | LSAVSVK |  |  |  | SK-MEL-5 Melanoma
31 | LSERRGV | SF-295 CNS |  |  | 
32 | LSFSRGS |  |  | HL-60-Leukemia | 
33 | LSGRVIV |  | UO31 Renal |  | 
34 | LSGSVLQ | HCT-116 Colon |  |  | 
35 | LSKGGSE |  | T-47D Breast |  | 
36 | LSLAGAG | HT-29 Colon |  |  | 
37 | LSLRGGL |  | MDA-MB-231 Breast |  | 
38 | LSMLRSA |  |  | H322-Lung | 
39 | LSRGSVA |  |  |  | M14 Melanoma
40 | LSSGLVS |  |  | H460-Lung | 
41 | LSTPGRV |  | UO31 Renal |  | 
42 | LSVLRVL |  |  |  | IGROV1 Ovarian
43 | LTAAVMV | SNB-75 CNS |  |  | 
44 | LTGGLVF |  |  |  | DU-145 Prostate
45 | LVGRGVR | SF-268 CNS |  |  | 
46 | LVGRVKL | HT-29 Colon |  |  | 
47 | LVGSSRV |  |  |  | SK-OV-3-3 Ovarian
48 | LVPLVSG |  |  |  | SK-OV-3-3 Ovarian

Row | Substance | Cell Line (NCI-60 cell line the peptide is associated with) | Cell Line the peptide is associated with (peptide recovered from phage library selection on this NCI-60 cell line) | Cell Line with which the peptide (and its tripeptide motif) is associated | Cell Line (NCI-60 cell line the peptide and its motif are associated with)
49 | LVRASNG |  |  |  | SK-MEL-28 Melanoma
50 | LVRDGVL | MALME-3M Melanoma |  |  | 
51 | LVRLVSL |  |  |  | IGROV1 Ovarian
52 | LVRSSGL |  |  | Hop-92-Lung | 
53 | LVRVSGR |  |  | HL-60-Leukemia | 
54 | LVSGYNG |  |  | Hop-92-Lung | 
55 | LVSSGSK |  |  | HL-60-Leukemia | 
56 | LVSSSEP |  |  | HL-60-Leukemia | 
57 | LVSTRWA |  | RXF393 Renal |  | 
58 | LVSTSNR |  |  |  | SK-MEL-2 Melanoma
59 | LVSVNGA | SNB-19 CNS; also recorded: SF-539 CNS |  |  | 
60 | LVSVWSR | HCT-15 Colon |  |  | 
61 | LVSYSAV |  | RXF393 Renal |  | 
62 | LVYSGRL | SW620-Colon |  |  | 
63 | LWFELVS |  | MCF-7 Breast |  | 
64 | LWGLGWL | HCC-2998-Colon |  |  | 
65 | LWLRSRE |  |  |  | UACC 257 Melanoma
66 | LYGGVRY |  |  | A549-Lung | 
67 | LYGVRYG |  |  | RPMI-8226-Leukemia | 
68 | LYLLSSA |  |  |  | SK-MEL-5 Melanoma
69 | LYMGGSH |  | TK-10 Renal |  | 
70 | LYVDASL |  | MDA-MB-435-Breast |  | 
71 | MDGVSTE |  | A498 Renal |  | 
72 | MERVAGR |  | SN12C Renal |  | 

Row | Substance | Cell Line (NCI-60 cell line the peptide is associated with) | Cell Line the peptide is associated with (peptide recovered from phage library selection on this NCI-60 cell line) | Cell Line with which the peptide (and its tripeptide motif) is associated | Cell Line (NCI-60 cell line the peptide and its motif are associated with)
73 | MFARGWE |  |  | CCRF-CEM Leukemia | 
74 | MGMSGPS |  |  | CCRF-CEM Leukemia | 
75 | MGPSARW |  | BT-549 Breast |  | 
76 | MGSAVSL |  |  | Hop-92-Lung | 
77 | MGVLTAE | SNB-19 CNS; also recorded: SF-539 CNS |  |  | 
78 | MITRGRL | HCT-15 Colon |  |  | 
79 | MLASAGR |  |  | HL-60-Leukemia | 
80 | MLGRGSV |  | SN12C Renal |  | 
81 | MLGSASL |  | A498 Renal |  | 
82 | MPAGLGV |  | RXF393 Renal |  | 
83 | MPGSSRP |  | RXF393 Renal |  | 
84 | MQGRVIV |  |  |  | SK-OV-3-3 Ovarian
85 | MQLRGAV |  |  |  | OVCAR-4 Ovarian
86 | MRGSGRN | KM-12C Colon |  |  | 
87 | MRGVARK |  |  |  | A498 Renal
88 | MRPGLRS |  | MDA-MB-231 Breast |  | 
89 | MRYELRS |  | SN12C Renal |  | 
90 | MSAFGRL |  |  | EKVX-Lung | 
91 | MSARGIL |  |  |  | SK-OV-3-3 Ovarian
92 | MSNLAAV | COLO-205-Colon |  |  | 
93 | MVLRGSY | SNB-75 CNS |  |  | 
